# According to PMC4788153, “Impact of Cytochrome P450 2D6 Function on the Chiral Blood Plasma Pharmacokinetics of 3,4-Methylenedioxymethamphetamine (MDMA) and Its Phase I and II Metabolites in Humans” (PLoS ONE, 2016):
# Counter-ions that a name gives are not always drawn. Like-named read-outs stand apart in the source and are kept apart here.
# Assay: Chiral plasma pharmacokinetics of MDMA and its phase I and II metabolites after controlled MDMA administration
# Format: in vivo, human
# Conditions: for AUC(0-t) / Tmax / Cmax / half-life: human, plasma; for change in AUC24 after bupropion pretreatment / change in Cmax after bupropion pretreatment: bupropion+MDMA vs placebo+MDMA, unsigned = increase; for reduction of Cmax by bupropion: metabolite stereoisomers, bupropion pretreatment vs placebo (abstract)
# Procedure: Blood plasma samples were analyzed non-stereoselectively as reported previously and reanalyzed for the present report using liquid chromatography-mass spectrometry/mass spectrometry after chiral derivatization with Marfey’s reagent as described previously. The method was fully validated, including selectivity, recovery, matrix effects, bias and imprecision, stability, and limit of quantification.
# [1] = both sexes, oral, 125 mg, placebo+MDMA (125 mg), CYP2D6 EM, n=13, plasma, read-out: AUC0-24h R
# [2] = both sexes, oral, 125 mg, placebo+MDMA (125 mg), CYP2D6 EM, n=13, plasma, read-out: tmax R
# [3] = both sexes, oral, bupropion+MDMA (125 mg), CYP2D6 EM (EM/Bup), n=13, plasma, read-out: AUC0-24h R
# [4] = both sexes, oral, bupropion+MDMA (125 mg), CYP2D6 EM (EM/Bup), n=13, plasma, read-out: Cmax R
# [5] = both sexes, oral, bupropion+MDMA (125 mg), CYP2D6 EM (EM/Bup), n=13, plasma, read-out: t1/2 R (converted)
# [6] = both sexes, oral, bupropion+MDMA (125 mg), CYP2D6 EM (EM/Bup), n=13, plasma, read-out: tmax R
# [7] = both sexes, oral, placebo+MDMA (125 mg), CYP2D6 EM, n=13, plasma, read-out: Cmax R
# [8] = both sexes, oral, placebo+MDMA (125 mg), CYP2D6 EM, n=13, plasma, read-out: t1/2 R (converted)
# [9] = bupropion+MDMA (125 mg), CYP2D6 EM (EM/Bup), n=13, plasma
# [10] = placebo+MDMA (125 mg), CYP2D6 EM, n=13, plasma
# [11] = placebo+MDMA (125 mg), CYP2D6 IM, n=3, plasma
# [12] = placebo-pretreated EMs, same-configuration MDMA enantiomer
# [13] = bupropion vs placebo pretreatment
# [14] = bupropion-pretreated CYP2D6 EMs
# [15] = both sexes, oral, 125 mg, placebo+MDMA (125 mg), CYP2D6 EM, n=13, plasma, read-out: AUC0-24h S
# [16] = both sexes, oral, 125 mg, placebo+MDMA (125 mg), CYP2D6 EM, n=13, plasma, read-out: Cmax S
# [17] = both sexes, oral, 125 mg, placebo+MDMA (125 mg), CYP2D6 EM, n=13, plasma, read-out: t1/2 S (converted)
# [18] = both sexes, oral, 125 mg, placebo+MDMA (125 mg), CYP2D6 EM, n=13, plasma, read-out: tmax S
# [19] = both sexes, oral, bupropion+MDMA (125 mg), CYP2D6 EM (EM/Bup), n=13, plasma, read-out: AUC0-24h S
# [20] = both sexes, oral, bupropion+MDMA (125 mg), CYP2D6 EM (EM/Bup), n=13, plasma, read-out: Cmax S
# [21] = both sexes, oral, bupropion+MDMA (125 mg), CYP2D6 EM (EM/Bup), n=13, plasma, read-out: t1/2 S (converted)
# [22] = both sexes, oral, bupropion+MDMA (125 mg), CYP2D6 EM (EM/Bup), n=13, plasma, read-out: tmax S
# [23] = im, placebo+MDMA (125 mg), CYP2D6 IM, n=3, plasma, read-out: AUC0-24h S
# [24] = im, placebo+MDMA (125 mg), CYP2D6 IM, n=3, plasma, read-out: Cmax S
# [25] = im, placebo+MDMA (125 mg), CYP2D6 IM, n=3, plasma, read-out: t1/2 S (converted)
# [26] = im, placebo+MDMA (125 mg), CYP2D6 IM, n=3, plasma, read-out: tmax S
# [27] = bupropion vs placebo pretreatment, CYP2D6 EMs
SMILES,"metabolite/MDMA ratio, mean constant (after approximately 2 h) (IMs)","metabolite/MDMA ratio, mean initial (highest, first hour) (IMs)",change in AUC24 after bupropion pretreatment (CYP2D6 EMs) [%],change in Cmax after bupropion pretreatment (CYP2D6 EMs) [%],"metabolite/MDMA ratio, mean constant (after approximately 2 h) (bupropion-pretreated EMs)","metabolite/MDMA ratio, mean initial (highest, first hour) (bupropion-pretreated EMs)","metabolite/MDMA ratio, mean constant (after approximately 2 h) (placebo-pretreated EMs)","metabolite/MDMA ratio, mean initial (highest, first hour) [12]",AUC(0-t) [15] [µM·h],Cmax [16] [nM],half-life [17] [h],Tmax [18] [h],AUC(0-t) [19] [µM·h],Cmax [20] [nM],half-life [21] [h],Tmax [22] [h],AUCtotal S [9],AUC(0-t) [23] [µM·h],Cmax [24] [nM],half-life [25] [h],further results
CN[C@H](C)Cc1ccc(O)c(OS(=O)(=O)O)c1 [R-DHMA 3-sulfate],0.10,1.9,-61,-68,0.10,0.4,0.22,9.9,,,,,,,,,,,,,AUC(0-t) [1]: 2.4 µM·h; Tmax [2]: 2.8 h; AUC(0-t) [3]: 0.96 µM·h; Cmax [4]: 50 nM; half-life [5]: 46.2 h; Tmax [6]: 3.8 h; Cmax [7]: 150 nM; half-life [8]: 20.2 h; AUCtotal R [9]: 3.1 (2.1) μmol/l*h-1; AUCtotal R [10]: 4.7 (2.5) μmol/l*h-1; AUCtotal R [11]: 2.6 (2.4) μmol/l*h-1
"CC(N)Cc1ccc2c(c1)OCO2 (stereo not drawn) [MDA, 3,4-methylenedioxyamphetamine]",,,,,,,,,,,,,,,,,,,,,change of R/S ratio for AUC24 after bupropion pretreatment [13]: -17%; change of R/S ratio for Cmax after bupropion pretreatment [13]: -19%
CN[C@H](C)Cc1ccc(OS(=O)(=O)O)c(OC)c1 [R-HMMA sulfate],0.13,1.9,-62,-62,0.13,0.31,0.54,15.8,,,,,,,,,,,,,"AUC(0-t) [1]: 5.5 µM·h; Tmax [2]: 2 h; AUC(0-t) [3]: 2.1 µM·h; Cmax [4]: 140 nM; half-life [5]: 34.4 h; Tmax [6]: 4.2 h; Cmax [7]: 370 nM; half-life [8]: 17.5 h; AUCtotal R [9]: 7.1 (4.6) μmol/l*h-1; tonset (time of first detection), mean [14]: 0.53 h; AUCtotal R [10]: 9.6 (2.7) μmol/l*h-1; AUCtotal R [11]: 3.4 (1.3) μmol/l*h-1; tonset (time of first detection), mean (placebo-pretreated CYP2D6 EMs): 0.33 h"
CNC(C)Cc1ccc(OC2OC(C(=O)O)C(O)C(O)C2O)c(OC)c1 (stereo not drawn) [S-HMMA glucuronide],0.20,0.30,-74,-82,0.20,0.10,1.3,5.6,5.2,490,6.1,2.9,1.3,88,9,4.9,1.7 (1.0) μmol/l*h-1,1.3,99,7.1,"tonset (time of first detection), mean [14]: 0.71 h; Tmax [26]: 4 h; AUCtotal S [10]: 5.5 (3.9) μmol/l*h-1; AUCtotal S [11]: 1.5 (0.83) μmol/l*h-1; tonset (time of first detection), mean (placebo-pretreated CYP2D6 EMs): 0.38 h"
CN[C@@H](C)Cc1ccc(O)c(OS(=O)(=O)O)c1 [S-DHMA 3-sulfate],0.42,8.8,-56,-67,0.34,1.8,1.1,33,6.3,590,7.3,1.5,2.8,200,11.3,2.4,3.7 (2.1) μmol/l*h-1,3,280,7,Tmax [26]: 1.9 h; AUCtotal S [10]: 7.1 (3.1) μmol/l*h-1; AUCtotal S [11]: 3.3 (1.1) μmol/l*h-1
CN[C@@H](C)Cc1ccc(OS(=O)(=O)O)c(O)c1 [S-DHMA 4-sulfate],0.05,0.91,-50,-61,0.04,0.60,0.11,3.8,0.64,55,8.1,1.7,0.32,21,14.3,2.4,0.48 (0.19) μmol/l*h-1,0.4,29,12.1,Tmax [26]: 2.1 h; AUCtotal S [10]: 0.80 (0.37) μmol/l*h-1; AUCtotal S [11]: 0.59 (0.30) μmol/l*h-1
CNC(C)Cc1ccc(OS(=O)(=O)O)c(O)c1 (stereo not drawn) [DHMA 4-sulfate],,,,,,,,,,,,,,,,,,,,,reduction of Cmax by bupropion: approximately 40%
CNC(C)Cc1ccc(OS(=O)(=O)O)c(OC)c1 (stereo not drawn) [HMMA sulfate],,,,,,,,,,,,,,,,,,,,,change of R/S ratio for Cmax after bupropion pretreatment [13]: +21%; reduction of Cmax by bupropion: approximately 40%
CNC(C)Cc1ccc(O)c(OS(=O)(=O)O)c1 (stereo not drawn) [DHMA 3-sulfate],,,,,,,,,,,,,,,,,,,,,reduction of Cmax by bupropion: approximately 40%
"CC(N)Cc1ccc2c(c1)OCO2 (stereo not drawn) [S-MDA, 3,4-methylenedioxyamphetamine]",,,-20,-24,,,,,0.61,41,9.2,4.6,0.49,31,11.1,5.2,0.69 (0.17) μmol/l*h-1,0.65,42,10.6,Tmax [26]: 4.4 h; AUCtotal S [10]: 0.76 (0.27) μmol/l*h-1; AUCtotal S [11]: 0.87 (0.31) μmol/l*h-1
"CN[C@@H](C)Cc1ccc2c(c1)OCO2 [S-MDMA, 3,4-methylenedioxymethamphetamine]",,,38,16,,,,,4.9,560,4.5,2.1,6.8,650,5.7,2.5,7.2 (1.7) μmol/l*h-1,6.8,720,5.1,prolongation of t1/2 after bupropion pretreatment [27]: 26%; reduction of Cl/F after bupropion pretreatment [27]: -31%; CL/F S [9]: 50.5 (13.5) l/h; Tmax [26]: 2.3 h; AUCtotal S [10]: 5.1 (1.5) μmol/l*h-1; CL/F S [10]: 72.8 (26.2) l/h; AUCtotal S [11]: 7.1 (2.0) μmol/l*h-1; CL/F S [11]: 50.4 (12.6) l/h
CNC(C)Cc1ccc(OC2OC(C(=O)O)C(O)C(O)C2O)c(OC)c1 (stereo not drawn) [R-HMMA glucuronide],0.05,0.05,-71,-77,0.05,0.09,0.40,1.3,,,,,,,,,,,,,"AUC(0-t) [1]: 3.3 µM·h; Tmax [2]: 3.7 h; AUC(0-t) [3]: 0.96 µM·h; Cmax [4]: 49 nM; half-life [5]: 31.7 h; Tmax [6]: 7.6 h; Cmax [7]: 210 nM; half-life [8]: 16 h; AUCtotal R [9]: 2.3 (1.5) μmol/l*h-1; tonset (time of first detection), mean [14]: 0.73 h; AUCtotal R [10]: 5.5 (4.3) μmol/l*h-1; AUCtotal R [11]: 2.0 (1.7) μmol/l*h-1; tonset (time of first detection), mean (placebo-pretreated CYP2D6 EMs): 0.41 h"
